Measurements: US11987581B1 (KING FAISAL UNIVERSITY, priority 2023, dated 2024)
pIC50: −log10 of the molar value.

Target: T1, recombinant human CK2 (RRββ-holoenzyme) (Homo sapiens, UniProt P68400)
T1 construct: purchased Millipore
Experiment: CK2 Kinase Assay (radiometric, [γ-33P] ATP)
Type: biochemical
Settings: final ATP concentration 15 μM; 10 min at 30° C.; eight concentrations; read-out: protein kinase CK2 activity IC50
Method: CK2 Kinase Assay was conducted using the protocol as described in Pierre F. et al; J. Med. Chem. 2011, 54, 635-654. The tested compounds in aqueous solution were added at a volume of 10 μL to a reaction mixture comprising 10 μL of assay dilution buffer (ADB; 20 mM MOPS, pH 7.2, 25 mM β-glycerol phosphate, 5 mM EGTA, 1 mM sodium orthovanadate, and 1 mM dithiothreitol), 10 μL of substrate peptide (RRRDDDSDDD, dissolved in ADB at a concentration of 1 mM), 10 μL of recombinant human CK2 (RRββ-holoenzyme, 25 ng dissolved in ADB; Millipore). Reactions were initiated by the addition of 10 μL of ATP solution (90% 75 mMMgCl2, 75 μM ATP (final ATP concentration: 15 μM) dissolved in ADB; 10% [γ-33P] ATP (stock 1 mCi/100 μL; 3000 Ci/mmol (Perkin-Elmer) and maintained for 10 min at 30° C. The reactions were quenched with 100 μL of 0.75% phosphoric acid and then transferred to and filtered through a phosphor cellulose filter plate (Millipore). After washing each well five times with 0.75% phosphoric acid, the plate was dried under vacuum for 5 min and, following the addition of 15 μL of scintillation fluid to each well, the residual radioactivity was measured using a Wallac luminescence counter. The IC50 values were derived from eight concentrations of test inhibitors.

T1 sequence (P68400 whole entry): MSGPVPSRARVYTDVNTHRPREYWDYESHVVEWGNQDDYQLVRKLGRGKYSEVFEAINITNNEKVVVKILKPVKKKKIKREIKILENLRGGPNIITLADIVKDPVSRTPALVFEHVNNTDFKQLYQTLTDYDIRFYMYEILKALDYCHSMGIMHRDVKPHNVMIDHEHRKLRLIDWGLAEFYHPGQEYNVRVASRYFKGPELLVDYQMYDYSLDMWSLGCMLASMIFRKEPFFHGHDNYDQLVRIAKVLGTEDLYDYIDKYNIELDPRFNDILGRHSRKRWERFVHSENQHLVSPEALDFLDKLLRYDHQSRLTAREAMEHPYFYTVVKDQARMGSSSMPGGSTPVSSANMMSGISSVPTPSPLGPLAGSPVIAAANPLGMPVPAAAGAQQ
T1 sequence (P67870 whole entry partner): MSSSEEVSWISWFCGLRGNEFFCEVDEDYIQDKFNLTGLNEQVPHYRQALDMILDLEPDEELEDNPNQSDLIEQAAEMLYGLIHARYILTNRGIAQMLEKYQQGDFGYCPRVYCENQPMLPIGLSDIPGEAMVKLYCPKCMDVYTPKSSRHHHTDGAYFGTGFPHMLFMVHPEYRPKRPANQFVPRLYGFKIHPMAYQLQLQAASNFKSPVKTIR

pIC50: 7.39
SMILES: O=C(O)c1cn2c(Nc3cccc(Cl)c3)nc3ccncc3c2n1 [Compound 1]
